Experimental data from patent publication US9820954B2, “Quantitative peri-orbital application of ophthalmology drugs” (JENIVISION INC., priority 2015, dated 2017).
“And” between values parts separate entries of the source, which are not always exact repeats. Equal values may be shown once. One block for each molecule: values may come before it.

Tests used:
[1] = tested on: Cynomolgus monkeys; test: Ocular surface hyperemia assessment (conjunctival congestion) in Cynomolgus monkeys; type: in vivo, Cynomolgus monkey; design: key to Conjunctival Congestion, hyperemia score: 0: Normal Appearance; 0.5: Very Slight Redness or Dilation of Conjunctival Vessels; 1: More Obvious Redness or Dilation of Conjunctival Vessels; 2: Whole Conjunctiva Exhibiting Pronounced Red Coloration. Visual Clarification of Individual Conjunctival Vessels Difficult.; 3: Whole Conjunctiva Exhibiting Pronounced Red Coloration. Visual Clarification of Individual Iridial Vessels Impossible. Accompany Conjunctival Edema; conditions: for Conjunctival Congestion, hyperemia score: left eyes, one value per animal
Procedure: (§1) Day 2 Intraocular pressure was measured in both eyes of the 6 selected animals. Before dosing the monkeys, the delivery of vehicle (Polyethylene glycol 400) and the compound (3-[(3′-fluoro-4-fluorobiphenyl-3-carbonyl) amino] phenoxyacetic acid isopropyl ester from the roller-ball applicator bottle was checked by rolling it along a solid surface (e.g. glass or plastic) until the liquid flowed freely from the roller-ball. The formulation of (3-[(3′-fluoro-4-fluorobiphenyl-3-carbonyl) amino] phenoxyacetic acid isopropyl ester was applied immediately afterwards by rolling the roller-ball slowly around the skin surrounding the left eye socket of each monkey. The roller-ball was rolled around this area 5 times for each monkey. The same drug application procedure was performed for the vehicle (Polyethylene glycol 400) to the right eye socket of each monkey. Intraocular pressure was measured in both eyes at 3 hours post-drug and vehicle application and again at 5 hours post-drug and vehicle application. The conjunctivae of both eyes were checked for redness at the end of the daily experimental period.
(§2) Day 8; Intraocular pressure was measured in both eyes and the conjunctivae were checked for redness/hyperemia.
(§3) Day 15; Intraocular pressure in was measured in both eyes and the conjunctivae were checked for redness/hyperemia.

[2] = tested on: Cynomolgus monkeys; test: Intraocular pressure after periorbital roller-ball application in Cynomolgus monkeys; type: in vivo, Cynomolgus monkey; design: Ocular Pressure (Left Eye), Mean: unit not given beside the values; conditions: for Ocular Pressure (Left Eye), Mean: treated left eye, n=6
Procedure: Day 1; 8 Cynomolgus monkeys, which are the favored animal model for glaucoma studies, were assigned to the study. Intraocular pressure was measured in both eyes. The 6 animals with the highest intraocular pressure were selected for study.
as §1
Day 3; Repeat the operation of Day 2.
Day 4; Repeat the operation of Day 2.
Day 5; Repeat the operation of Day 2.
Days 6 and 7, no drug administered.
as §2, §3
This is very unusual as most IOP lowering drugs are administered daily in order to continuously lower IOP.

[3] = tested on: patient; test: Periorbital application in a patient with bacterial conjunctivitis (patient example); type: in vivo, human; conditions: Example VIII: 0.3% w/w cream (Composition 3, Table II), periorbital skin of the right eye daily
Excerpt: A pediatric patient suffers from bacterial conjunctivitis in their right eye.

[4] = tested on: patient; test: Periorbital application for ocular pain/inflammation after cataract surgery (patient example); type: in vivo, human; conditions: Example IX: 0.1% w/v solution (formula 5, table 1) once a day for five days, periorbital skin of both eyes
Excerpt: A person is suffering from ocular/pain inflammation after cataract surgery.

- Conjunctival Congestion, hyperemia score ([1]; 150407 (12:00) (Day 2, 3 hr post)): 0
- Conjunctival Congestion, hyperemia score ([1]; 150407 (14:00) (Day 2, 5 hr post)): 0
- Conjunctival Congestion, hyperemia score ([1]; 150408 (12:00) (Day 3, 3 hr post)): 0
- Conjunctival Congestion, hyperemia score ([1]; 150408 (14:00) (Day 3, 5 hr post)): 0
- Conjunctival Congestion, hyperemia score ([1]; 150409 (12:00) (Day 4, 3 hr post)): 0
- Conjunctival Congestion, hyperemia score ([1]; 150409 (14:00) (Day 4, 5 hr post)): 0
- Conjunctival Congestion, hyperemia score ([1]; 150410 (12:00) (Day 5, 3 hr post)): 0
- Conjunctival Congestion, hyperemia score ([1]; 150410 (14:00) (Day 5, 5 hr post)): 0
- Conjunctival Congestion, hyperemia score ([1]; 150413 (8:00) (Day 8)): 0.6 and 0 (4×) and 0.5
- Conjunctival Congestion, hyperemia score ([1]; 150420 (8:00) (Day 15)): 0
- surface hyperemia (summary of Table IV) ([1]; Cynomolgus monkeys, exception: very slight redness on Day 7 in two monkeys): almost no surface hyperemia
Structure (SMILES): CC(C)OC(=O)COc1cccc(NC(=O)c2cc(-c3cccc(F)c3)ccc2F)c1 [3-[(3′-fluoro-4-fluorobiphenyl-3-carbonyl)amino] phenoxyacetic acid isopropyl ester]
- reductions in intraocular pressure (Table III and FIG. 2) ([2]; Cynomolgus monkeys, periorbital application, versus normal baseline): Statistically significant reductions
- Ocular Pressure (Left Eye), Mean ([2]; Day 2-3 hr post, in Polyethylene glycol 400, dosed Days 2-5, baseline Day 1 17.8 / 18.3): 18.0
- Ocular Pressure (Left Eye), Mean ([2]; Day 2-5 hr post, baseline Day 1 17.8 / 18.3): 17.8
- Ocular Pressure (Left Eye), Mean ([2]; Day 3-3 hr post): 12.2
- Ocular Pressure (Left Eye), Mean ([2]; Day 3-5 hr post): 12.3
- Ocular Pressure (Left Eye), Mean ([2]; Day 4-3 hr post): 10.9
- Ocular Pressure (Left Eye), Mean ([2]; Day 4-5 hr post): 10.6
- Ocular Pressure (Left Eye), Mean ([2]; Day 5-3 hr post): 8.4
- Ocular Pressure (Left Eye), Mean ([2]; Day 5-5 hr post): 9.1
- Ocular Pressure (Left Eye), Mean ([2]; Day 8-8:00am, no drug after Day 5): 8.5
- Ocular Pressure (Left Eye), Mean ([2]; Day 15-8:00, no drug after Day 5): 17.4
- IOP lowering (FIG. 2) ([2]; after five doses): long term IOP lowering
- duration of IOP lowering ([2]; periorbital skin, single administration and/or after a series of single administrations): 7 to 14 days

Structure (SMILES): O=C(O)c1cn(C2CC2)c2cc(N3CCNCC3)c(F)cc2c1=O [ciprofloxacin]
- bacterial conjunctivitis [3]: bacterial infection disappears

Structure (SMILES): C[C@]12C=CC(=O)C=C1CC[C@@H]1[C@@H]2[C@@H](O)C[C@@]2(C)[C@H]1CC[C@]2(O)C(=O)CO [prednisolone]
- ocular pain and inflammation after cataract surgery [4]: reduces the pain and inflammation
